Reference: patent publication US20120264611A1, “Pesticide Preparations Containing Derivatives Of Pyrrolidone-4-Carboxylic Acid” (CLARIANT FINANCE (BVI) LIMITED, priority 2009, published 2012)

Columns and labels:
[1] = system: tomato plants (cv. Astona F1); experiment: Determination of phytotoxicity on tomato plants (auxiliaries sprayed without pesticide); type: in vivo
Experimental: The phytotoxicity is determined on tomato plants (cv. Astona F1), a species which, as is known, is sensitive to phytotoxic substances taken up via the leaf surface (“Phototoxicity of different classes of adjuvants”, H. de Ruiter, et al., Proceedings Fifth International Symposium on Adjuvants for Agrochemicals, 1998, Ed. P. McMullan, pp. 204-209).
Tomato plants (cv. Astona F1) are cultivated in a greenhouse under 14-hour light irradiation at a temperature of 18/12 (±0.5)° C. (day/night) and a relative atmospheric humidity of 70/80 (±5) % (day/night). 12 days after germination, the seedlings are transplanted into plastic pots having a diameter of 11 cm (one plant per pot) filled with a mixture of sand and soil (Soil No. 12, Colent b.v., Lent, the Netherlands) in a volume ratio of sand:soil=1:2.
The pots are placed on a subirrigation mat which was moistened daily with a nutrient solution of medium strength.
28 days after sowing, the plants were treated at the 4-leaf stage, each plant having a height of 15-17 cm. The auxiliary content of the spray solution was 0.5% (v/v or % by volume).
The spray solutions are applied to the plants using an air pressure-operated laboratory sprayer such that the resulting application rate is 200 l/ha.
The treated plants are scored visually after 2 and 8 days (DAT; DAT: days after treatment) and evaluated using a qualitative scale (1 to 5). Here, 1=no discoloration or necrosis of the leaves to 5=complete necrosis of the treated leaf surface. Moreover, the above-ground plant mass is determined after 8 days (fresh weight). In each case, the average is calculated, based on the number of treated plants.

[2] = system: Wild oats (Avena fatua, AVEFA); experiment: Increase of the biological activity of glyphosate by adjuvants, greenhouse trial (tank mix method); type: in vivo; conditions: 21 days
Text: Here, 50% strength solutions are used. In the case of compound 1, triethanolamine is additionally added to dissolve the acid.
By mixing these tank mix solutions with a commercial aqueous solution of glyphosate isopropylammonium (comprising 62% by weight of the active compound glyphosate IPA salt; IPA: isopropylammonium) and further addition of water, a preparation according to the invention is formed. The ratio of glyphosate (based on the acid equivalent) to adjuvant corresponds to that which is also found in commercially available glyphosate formulations.
For easier monitoring of the adjuvant effects, reduced doses of glyphosate are used; the application rate is 135.2 g a.e./ha glyphosate IPA salt (corresponding to 4.0 mmol or 0.68 g a.e./l at a liquid volume of 200 l/ha). The abbreviation “a.e.” means “acid equivalent”.
The spray solutions comprise the following concentrations of adjuvant: 0.0141% (v/v).
Wild oats (Avena fatua, AVEFA) are cultivated in a greenhouse under 14 hours of light irradiation at a temperature of 18/12 (±0.5)° C. (day/night) and a relative atmospheric humidity of 70/80 (±5) % (day/night). Light is introduced via high-pressure mercury lamps and fluorescent tubes, resulting in a power of 70 W/m^2 (PAR; PAR: photosynthetically active radiation (400-700 nm)) on the leaf level. The plants are cultivated in plastic pots having a diameter of 11 cm, filled with a mixture of sand and soil (Soil No. 12, Colent b.v., Lent, the Netherlands) in a volume ratio of sand:soil=1:2.
The pots are placed on a subirrigation mat which is moistened daily with a nutrient solution of medium strength. After emergence, the AVEFA seedlings are divided into six plants per pot for the activity tests.
The spray solutions are used to carry out greenhouse trials. The effect of the adjuvants on the efficacy of glyphosate is tested.
The spray solutions are applied to the plants using an air pressure-operated laboratory sprayer, such that an application rate of 200 l/ha results.
Wild oats (AVEFA) are treated once they have reached the 2-3 leaf stage.
The efficacy of the herbicide is assessed after 21 days. To this end, the mass of the remaining above-ground plant parts (fresh weight (FW) in gram) is determined. This is shown in table 3, together with the calculated relative residual amount, compared to the untreated plant (in % by weight).

## CCCCCCCC/C=C\CCCCCCCCN1CC(C(=O)O)CC1=O (stereo not drawn) [Compound 1, N-oleyl-2-pyrrolidone-4-carboxylic acid]
[1]; 2 days after treatment, qualitative scale 1 (no discoloration or necrosis of the leaves) to 5 (complete necrosis of treated leaf surface), average, auxiliary 0.5% (v/v), 200 l/ha, no pesticide
  Visual evaluation (DAT 2): 1.1
[1]; 8 days after treatment, qualitative scale 1 (no discoloration or necrosis of the leaves) to 5 (complete necrosis of treated leaf surface), average, auxiliary 0.5% (v/v), 200 l/ha, no pesticide
  Visual evaluation (DAT 8): 1.5
[1]; above-ground plant mass after 8 days, average, auxiliary 0.5% (v/v), 200 l/ha, untreated 8.6 g
  Fresh weight: 8.6 g
[1]; summary of table 2, after 8 days
  Mass of the plants formed compared to the untreated plant (in words): not reduced
[1]; summary of table 2, auxiliary 0.5% (v/v)
  Phytotoxic reaction of the tomato plants (in words): at most minimal signs of a phytotoxic reaction

## O=C(O)CNCP(=O)(O)O [Glyphosate, no adjuvant added, glyphosate isopropylammonium]
[2]; glyphosate IPA salt 135.2 g a.e./ha, adjuvant 0.0141% (v/v), 200 l/ha, untreated 11.26
  Test 1, fresh weight of remaining above-ground plant parts: 9.63 g FW
[2]; glyphosate IPA salt 135.2 g a.e./ha, adjuvant 0.0141% (v/v), 200 l/ha, untreated 12.97
  Mean of tests 1 and 2: 11.54 g FW
[2]; glyphosate IPA salt 135.2 g a.e./ha, adjuvant 0.0141% (v/v), 200 l/ha, untreated 14.67
  Test 2, fresh weight of remaining above-ground plant parts: 13.45 g FW
[2]; calculated relative residual amount compared to the untreated plant (100)
  Residual amount: 89 % by weight
